We go through one compound from patent US8716237B2, “Methods for the treatment or prevention of hemorrhagic conditions” (University of Rochester, priority 2007, dated 2014).

Each structure is given as a SMILES string.

Test [1] deals with PAI-1. The test is described as follows: PAI-1 mRNA expression in mouse embryonic fibroblasts (Q-PCR). Format: cell-based. The settings on record: Cyld−/− MEF cells; pretreatment with SB203580. The method, then:
Cells were cultured on 12-well plates and transfected with various expression plasmids, as described in Examples 1-15 and the Brief Description of the Drawings. All transient transfections were carried out in triplicate using TransIT-LT1 reagent (Minis) following the manufacturer's instructions. […] Transfected cells were pretreated with or without chemical inhibitors including SB203580 (1 μM) for 2 hours. S.p. or pneumolysin was then added to the transfected cells 42 hours after transfection. After 5 hours, the cells were harvested for either RNA extraction and real-time quantitative PCR analysis as described in the Examples or luciferase assay. Luciferase activity was normalized with respect to β-galactosidase activity using the Galacton-Plus substrate system (Tropix) following manufacturer's instruction. In all co-transfections with expression plasmids of signaling molecules, an empty vector was used as a control. […]
(§1) Total RNA was isolated with TRIzol reagent (Invitrogen) by following the manufacturer's instructions. Real-Time Quantitative RT-PCR analysis of PAI-1 and CYLD were performed as described in Jono et al., “NF-κB Is Essential for Induction of CYLD, the Negative Regulator of NF-κB: Evidence for a Novel Inducible Autoregulatory Feedback Pathway,” J. Biol. Chem. 279:36171-4 (2004), which is hereby incorporated by reference in its entirety. […]

Test [2] deals with PAI-1. Description: PAI-1 induction in BEAS-2B, SAEC and NHBE cells. Format: cell-based, human. The settings on record: SB203580.
From the text: J. Physiol. Lung Cell. Mol. Physiol. 281:L616-23 (2001), and Hasegawa et al., “Decreased Intracellular Iron Availability Suppresses Epithelial Cell Surface Plasmin Generation. Transcriptional and Post-transcriptional Effects on u-PA and PAI-1 Expression,” Am. J. Respir. Cell. Mol. Biol. 21:275-82 (1999), each of which is hereby incorporated by reference in its entirety. Wild type and Cyld-deficient mouse embryonic fibroblasts were obtained from E13 embryos and maintained in DMEM supplemented with 10% FBS (Invitrogen). […]
Cells were cultured on 12-well plates and transfected with various expression plasmids, as described in Examples 1-15 and the Brief Description of the Drawings. […] After 5 hours, the cells were harvested for either RNA extraction and real-time quantitative PCR analysis as described in the Examples or luciferase assay. […]
as §1

Turning to `C[S+]([O-])c1ccc(-c2nc(-c3ccncc3)c(-c3ccc(F)cc3)[nH]2)cc1` (stereo not drawn) [SB203580], in the test with PAI-1 [1], the “PAI-1 expression in cells treated with PLY” value is recorded as “reduced PAI-1 expression” and the “PAI-1 expression in cells treated with S. pneumoniae” value was “reduced PAI-1 expression”. Also, the “PAI-1 induction by S. pneumoniae WT and PLY” value in the test with PAI-1 [2] is reported as “inhibited PAI-1 induction”.
